Patent US10525159B2, “Liquid preparation for contact lenses comprising hydrolyzed hyaluronic acid derivative and cationic bactericide” (OPHTECS CORPORATION, priority 2016, dated 2020)

How the values were obtained:
[1] = Hydrophilicity of SCL by dynamic contact angle measurement (balafilcon A); type: physicochemical; settings: FIG. 7
Description: (§1) SCL having etafilcon A, senofilcon A or balafilcon A as a material was taken out from a blister pack. Moisture on SCL to be measured was wiped off twice with a paper waste cloth, and dien the contact angle was measured using a dynamic contact angle measuring apparatus (automatic contact angle meter DSA100 S manufactured by Krass Company). SCL was set on a sample stage of the dynamic contact angle measuring apparatus in such a manner that die concave surface of the SCL faced upward, and 2 μL of PBS was dropped After dropping, droplets were photographed with a camera after about 10 seconds, and the contact angle between the SCL surface and the droplet was calculated by analysis software.
(§2) Next, each SCL was immersed in a PBS solution containing 50 ppm of the hydrolyzed hyaluronic acid derivative. As a control test, each SCL was immersed in PBS. […] The cycle treatment was repeated, and fir SCL 1 day after immersion and 13 days after immersion, the contact angle was calculated in die same manner as described above.
(§3) Further, each SCL was immersed in a PBS solution containing 50 ppm of Na hyaluronate instead of die hydrolyzed hyaluronic add derivative, and die contact angle was calculated in die same manner as in the case of the hydrolyzed hyaluronic acid derivative.

[2] = Hydrophilicity of SCL by dynamic contact angle measurement (etafilcon A); type: physicochemical
Description: as §1
Next, each SCL was immersed in a PBS solution containing 50 ppm of the hydrolyzed hyaluronic acid derivative. As a control test, each SCL was immersed in PBS. The SCLs were immersed in the respective solutions overnight, and then subjected to cycle treatment under the condition of immersion of the SCL in PBS for 8 hours in conformity to actual wear. The cycle treatment was repeated, and fir SCL 1 day after immersion and 13 days after immersion, the contact angle was calculated in die same manner as described above.
as §3

[3] = test system: both eyes of 15 subjects; assay: Suppression of corneal staining: SPK (superficial punctate keratitis) score in subjects; type: in vivo; settings: 50 ppm in solution A; 15 subjects (30 eyes); conclusion from the SPK score
[4] = Hydrophilicity of SCL by dynamic contact angle measurement (senofilcon A); type: physicochemical; settings: FIG. 9
Description: as §1, §2, §3

[5] = PBS containing 50 ppm, risk ratio of less than 5%

hydrolyzed alkyl (C12-13) glyceryl hyaluronate [hydrolyzed hyaluronic acid derivative]
contact angle as compared to SCL immersed in PBS, or PBS containing 50 ppm of Na hyaluronate ([1]; Mann-Whitney U test): significantly smaller
contact angle of SCL immersed for 13 days compared with 1 day [1, 5]: significantly smaller
contact angle as compared to SCL immersed in PBS, or PBS containing 50 ppm of Na hyaluronate ([2]; etafilcon A SCL, PBS containing 50 ppm, Mann-Whitney U test, FIG. 5): significantly smaller
contact angle of SCL immersed for 13 days compared with 1 day ([2]; etafilcon A SCL, PBS containing 50 ppm, risk ratio of less than 5%, FIG. 5): significantly smaller
contact angle as compared to Na hyaluronate ([2]; summary for all of the three kinds of SCL (etafilcon A, balafilcon A, senofilcon A)): smaller contact angle
effect on occurrence of corneal staining [3]: effect of suppressing occurrence of corneal staining
contact angle as compared to SCL immersed in PBS, or PBS containing 50 ppm of Na hyaluronate ([4]; Mann-Whitney U test): significantly smaller
contact angle of SCL immersed for 13 days compared with 1 day [4, 5]: significantly smaller
